“Also recorded” adds a separate entry of the source. Where a name gives a salt, the structure may show the parent alone. Read-outs that look alike come from different tables or passages of the source.
Key:
[1] = test system: HL-60 cells; assay: alamarBlue cell viability assay, HL-60; format: cell-based; conditions: Homo sapiens, HL-60, 72 h, read-out: HL-60 IC50 ± SEM
Description: (§1) Cell viability and proliferation assays were used to evaluate the in vitro cytotoxicity of all synthesised compounds in a variety of different cancer cell lines using the alamarBlue® viability assay and the results are presented in Table 1 and Table 2. The sensitivity of cancer cells to drugs can often be compromised by PIK3CA, Ras and BRAF mutations. To determine whether such mutations are critical to the efficacy of our new compounds we tested them in a range of cancerous cell lines expressing different mutations. Firstly, we used the HL-60 (human promyelocytic leukaemia, NRas mutated) cell line for general cytotoxicity screening of all compounds. […] Lastly, toxicity against MCF-10A, which is a non-tumorigenic epithelial cell line, was also assessed for one of the most promising compounds (4). The graphs representing the viability results with the HL-60, MCF-7, HeLa, HCT-116, and HKH-2 cancer cell lines for compound 1 and derivatives 2, 3, and 4 are shown in Figures S7–S10 (ESI).
Cells were counted and seeded in 96-well plates at a density of 2 × 10^5 cells/mL for HL-60, 2.5 × 10^4 cells/mL for MCF-7, MCF10A and HeLa, 1 × 10^5 cells/mL for HCT116 and HKH-2, all of them in their respective media. The 96-well plates were then treated with a 1:100 dilution of stock concentrations of drugs or EtOH (1% v/v)/DMSO (0.1% v/v) as vehicle control in triplicate. Three blank wells containing 200 µL RPMI with no cells were also set-up as blanks. After a 72 h incubation, 20 µL of alamarBlue was added to each well. The plates were incubated in darkness at 37 °C for 4–5 h using a Molecular Devices microplate reader, the fluorescence (F) was then read at an excitation wavelength of 544 nm and an emission wavelength of 590 nm. Cell viability was then determined by subtracting the mean blank fluorescence (Fb) from the treated sample fluorescence (Fs) and expressing this as a percentage of the fluorescence of the blanked vehicle control (Fc). […] The results were then plotted as a nonlinear regression, sigmoidal dose-response curves on Prism, from which the IC50 value for each drug was determined. […]
Pharmacy, TCD. It was maintained in Roswell Park Memorial Institute (RPMI) 1640 medium with stable glutamate (GlutaMax I) supplemented with 10% (v/v) fetal bovine serum (FBS), 1% (v/v) penicillin/ streptomycin (pen-strep) and 2 mM L-glutamine. […]
(§2) 4.4. AlamarBlue ® Cell Viability Assay
(§3) Cells were counted and seeded in 96 well plates at a density of 2 × 10^5 cells/mL for HL-60, 2.5× 10^4 cells/mL for MCF-7, MCF10A and HeLa, 1 × 10^5 cells/mL for HCT116 and HKH-2, all of them in their respective media. The 96 well plates were then treated with a 1:100 dilution of stock concentrations of drugs or EtOH (1% v/v)/DMSO (0.1% v/v) as vehicle control in triplicate.
Three blank wells containing 200 µL media with no cells were also set-up as blanks. After a 72 h incubation, 20 µL of AlamarBlue was added to each well. The plates were incubated in darkness at 37 °C for 4-5 h. Using a Molecular Devices microplate reader, the fluorescence (F) was then read at an excitation wavelength of 544 nm and an emission wavelength of 590 nm.
Cell viability was then determined by subtracting the mean blank fluorescence (Fb) from the treated sample fluorescence (Fs) and expressing this as a percentage of the fluorescence of the blanked vehicle control (Fc). […] The results were […]
then plotted as a nonlinear regression, sigmoidal dose-response curves on Prism, from which the IC50 value for each drug was determined.
Fs − Fb x 100 = % Cell Viability
60 cell line in a dose-dependent manner.
(1 picture or pasted object on this page, not shown here)

[2] = test system: HKH-2 cells; assay: alamarBlue cell viability assay, HKH-2; format: cell-based; conditions: Homo sapiens, 72 h, mutated KRas disrupted, read-out: HKH-2 IC50 ± SEM
Description: as §1
(§4) Cells were counted and seeded in 96-well plates at a density of 2 × 10^5 cells/mL for HL-60, 2.5 × 10^4 cells/mL for MCF-7, MCF10A and HeLa, 1 × 10^5 cells/mL for HCT116 and HKH-2, all of them in their respective media. The 96-well plates were then treated with a 1:100 dilution of stock concentrations of drugs or EtOH (1% v/v)/DMSO (0.1% v/v) as vehicle control in triplicate. Three blank wells containing 200 µL RPMI with no cells were also set-up as blanks. After a 72 h incubation, 20 µL of alamarBlue was added to each well. The plates were incubated in darkness at 37 °C for 4–5 h using a Molecular Devices microplate reader, the fluorescence (F) was then read at an excitation wavelength of 544 nm and an emission wavelength of 590 nm. Cell viability was then determined by subtracting the mean blank fluorescence (Fb) from the treated sample fluorescence (Fs) and expressing this as a percentage of the fluorescence of the blanked vehicle control (Fc). […] The results were then plotted as a nonlinear regression, sigmoidal dose-response curves on Prism, from which the IC50 value for each drug was determined.
(§5) The MCF-7 (human breast tumour) cell line was obtained from Prof. Mary Meegan, School of Pharmacy, TCD. It was maintained in Roswell Park Memorial Institute (RPMI) 1640 medium with stable glutamate (GlutaMax I) supplemented with 10% (v/v) fetal bovine serum (FBS), 1% (v/v) penicillin/ streptomycin (pen-strep) and 2 mM L-glutamine.
(§6) The HeLa (human epitheloid cervix carcinoma) cell line was obtained from Prof. Thorfinnur Gunnlaugsson, School of Chemistry TCD. It was maintainedin Dulbecco's Modified Eagle's Medium (DMEM) supplemented with 10% (v/v) fetal bovine serum (FBS) and 1%(v/v) penicillin/ streptomycin (pen-strep).
(§7) The HCT116and HKH-2 (human colon cancer cells) cell lines were obtained from Prof. James Murray, School of Biochemistry and Immunology TCD. They were maintainedin Dulbecco's Modified Eagle's Medium (DMEM) supplemented with 10% (v/v) fetal bovine serum (FBS), 1% (v/v) penicillin/ streptomycin (pen-strep), 1% (v/v) sodium pyruvate (NaPyr), 1% (v/v) L-glutamine (L-Glu) and, only for HKH-2, 0.6 mg/mL geneticine (G418).
(§8) MCF-10A (human breast epithelial) cell line was obtained from Prof. Mary Meegan, School of Pharmacy, TCD. […]
(§9) Cells were counted and seeded in 96 well plates at a density of 2 × 10^5 cells/mL for HL-60, 2.5× 10^4 cells/mL for MCF-7, MCF10A and HeLa, 1 × 10^5 cells/mL for HCT116 and HKH-2, all of them in their respective media. […]

[3] = test system: HCT116 cells; assay: alamarBlue cell viability assay, HCT116; format: cell-based; conditions: Homo sapiens, HCT-116, 72 h, KRas mutant, read-out: HCT116 IC50 ± SEM
Description: as §1, §4, §5, §6, §7, §8, §9

[4] = test system: MCF-7 cells; assay: alamarBlue cell viability assay, MCF-7; format: cell-based; conditions: Homo sapiens, MCF7, 72 h, read-out: MCF-7 IC50 ± SEM
Description: as §1, §4, §5, §6, §7
MCF-10A (human breast epithelial) cell line was obtained from Prof. Mary Meegan, School of Pharmacy, TCD. It was cultured in Dulbecco’s Modified Eagle Medium/Nutrient Mixture F-12 (DMEM/F12; Gibco) supplemented with 5% horse serum (Invitrogen), 20 ng/mL epidermal growth factor (Merck Millipore), 0.5 μg/mL hydrocortisone (Sigma), 100 ng/mL cholera toxin (Sigma), 10 μg/mL insulin (Sigma), and penicillin/streptomycin (1% v/v) (Gibco).
as §2
as §3, with “triplicate. […]” for “triplicate.”

[5] = test system: HeLa cells; assay: alamarBlue cell viability assay, HeLa; format: cell-based; conditions: Homo sapiens, 72 h, read-out: HeLa IC50 ± SEM
Description: as §1, §4, §5, §6, §7, §8, §9

[6] = test system: ERK phosphorylation (MAPK/ERK pathway); assay: Western immunoblot of ERK phosphorylation in HL-60 extracts; format: cell-based, human; conditions: HL-60, 5 and 10 μM, 16 h
Experimental: Thus, using Western immunoblot analysis of HL-60 extracts, we investigated the expression and phosphorylation levels of ERK (as an indication of ERK activation), which is the downstream effector of the Ras/BRAF signalling pathway (Figure 6).
HL60s were seeded in T25 flasks at 50 × 10^4 cells/mL and cells were treated with either vehicle [0.5% EtOH (v/v)], 1–4, 9 or 52 (5 µM), as well as 1 (10 µM as reported). After 16 h, cells were collected and washed with PBS. Cell pellets were re-suspended in cold cell lysis buffer (radio-immunoprecipitation assay buffer) supplemented with 1% phosphatase inhibitor cocktail 2 and 3 (Sigma) and 10% protease inhibitor (Roche). Cells were lysed for 30 min on ice. Protein concentration was then determined by BCA assay. Lysates were boiled with Laemmli sample buffer [Tris-HCL 50 mM (pH 6.7), glycerol 10% (w/v), sodium dodecyl sulphate 2% (w/v), bromophenol blue 0.02% (w/v)] containing DTT […] for 10 min at 90 °C. Moreover, 20 µg of lysates were resolved by sodium dodecyl sulphate polyacrylamide gel electrophoresis (SDS-PAGE) and transferred onto PVDF transfer membrane (EMD Millipore). Membranes were blocked with 5% non-fat milk and probed with primary antibodies for ERK and phospho-ERK (Cell Signalling). Anti-GAPDH was used as a loading control (Calbiochem).
Figure 6 Western immunoblot of HL-60 cell extracts following incubation with compounds 2, 3, 4, 9, 52 and 1 (as a control). HL60 cells were seeded at 2 × 10^5 cells/mL and were treated with either vehicle [0.5% EtOH (v/v)], compounds 52, 2, 9, 3 and 4 (5 µM) or compound 1 (5 and (*) 10 µM, as in reference) for 16 h. Cells were lysed and equal amounts of protein were loaded and separated on 15% SDS-PAGE gels, transferred to PVDF membrane and probed with antibodies against total and phosphorylated ERK. Anti-GAPDH was used as a loading control. Results are representative of 2 independent experiments.
HL-60 cells were seeded in T25 flasks at 50 x10^4 cells/mL and treated with either vehicle [0.5% […]
After 16 hours, cells were […]
collected and washed with PBS. Cell pellets were re-suspended in cold cell lysis buffer (radio-immunoprecipitation assay buffer) supplemented with 1% phosphatase inhibitor cocktail 2 and 3 (Sigma) and 10% protease inhibitor (Roche). Cells were lysed for 30 minutes on ice.
Protein concentration was then determined by BCA assay. Lysates were boiled with laemmli sample buffer [Tris-HCL 50 mM (pH 6.7), glycerol 10% (w/v), sodium dodecyl sulphate 2% (w/v), bromophenol blue 0.02% (w/v)] containing DTT […] for 10 min. at 90 °C. Also 20 µg of lysates were resolved by sodium dodecyl sulphate polyacrylamide gel electrophoresis (SDS - PAGE) and transferred onto PVDF transfer membrane (EMD Millipore). Membranes were blocked with 5% non-fat milk and probed with primary antibodies for ERK and phospho-ERK (Cell Signaling). Anti-GAPDH was used as a loading control (Calbiochem).

[7] = test system: BRAF; design: method as in PMID 24858546, PMID 26318998; conditions: cited from earlier work
[8] = test system: BRAF; design: method as in PMID 24858546, PMID 26318998; conditions: in vitro; cited from earlier work
[9] = test system: HL-60 cells; design: method as in PMID 24858546; conditions: alamarBlue; previously tested compound; read-out: HL-60 IC50 ± SEM; cited from earlier work

SMILES: CNC(=O)c1cc(Oc2ccc(NC(=O)Nc3ccc(Cl)c(C(F)(F)F)c3)cc2)ccn1 [Sorafenib, reference compound]
- IC50 [1]: 2.53 ± 0.68 µM
- IC50 [2]: 4.43 ± 0.39 µM
- IC50 [3]: 6.79 ± 0.18 µM
- IC50 [4]: 3.07 ± 0.1 µM
- IC50 [5]: 4.59 ± 0.45 µM

SMILES: N=C(N)Nc1ccc(Oc2cccc(NC(=N)Nc3ccc(Cl)c(C(F)(F)F)c3)c2)cc1 [Compound 1]
- effect on ERK phosphorylation (Ras/BRAF pathway) [6]: inhibiting ERK phosphorylation; also recorded: abrogates ERK activation
- inhibition of ATP binding to BRAF [7]: did not inhibit ATP binding to BRAF
- BRAF activity in radiometric assay [8]: inhibited in vitro
- IC50 [2]: 19.2 ± 0.84 µM
- IC50 [9]: 9.72 ± 0.9 µM
- IC50 [3]: 9.96 ± 0.6 µM
- IC50 [4]: 9.3 ± 1.87 µM
- IC50 [5]: 9.48 ± 0.16 µM

SMILES: N=C(N)Oc1ccc(Oc2cccc(Nc3ccc(Cl)c(C(F)(F)F)c3)c2)cc1 [Compound 70, 4-(3-((4-Chloro-3-(trifluoromethyl)phenyl)amino)phenoxy)phenyl carbamimidate hydrochloride]
- IC50 ([1]; alamarBlue, 72 h): 4.22 ± 0.04 µM
- IC50 [4]: 7.32 ± 0.35 µM

— PMC7767381, “Exploring the Anti-Cancer Mechanism of Novel 3,4′-Substituted Diaryl Guanidinium Derivatives” (Pharmaceuticals, 2020)
